In ChEMBL document CHEMBL3217504, “Potent growth inhibitory activity of ()-platencin towards multi-drug-resistant and extensively drug-resistant Mycobacterium tuberculosis” (2013):
≈ marks a conversion by molar mass, not a printed value.

Legend:
Assay type in all cases: functional
[1] = test system: Mycobacterium tuberculosis; experiment: Antimycobacterial activity against streptomycin, ethambutol, kanamycin, isoniazid, rifabutin, rifampicin, levofloxacin, and ciprofloxacin-resistant Mycobacterium tuberculosis LV19 by microbroth dilution method
[2] = test system: Mycobacterium tuberculosis; experiment: Ratio of MBC99.9 to MIC for isoniazid, rifampicin, and rifabutin-resistant Mycobacterium tuberculosis LV2
[3] = test system: Mycobacterium tuberculosis; experiment: Ratio of MBC99.9 to MIC for streptomycin, ethambutol, kanamycin, isoniazid, rifabutin, rifampicin, levofloxacin, and ciprofloxacin-resistant Mycobacterium tuberculosis LV19
[4] = test system: Mycobacterium tuberculosis; experiment: Antimycobacterial activity against isoniazid, rifampicin, and rifabutin-resistant Mycobacterium tuberculosis LV2 by microbroth dilution method

C=C1C[C@@]23C=CC(=O)[C@@](C)(CCC(=O)Nc4c(O)ccc(C(=O)O)c4O)[C@@H]2C[C@@H]1CC3 (racemic) [PLATENCIN]
MIC [1]: 1 µg/mL (≈ 2.35 µM)
Ratio [2]: >64
Ratio [3]: >64
MIC [4]: 1 µg/mL (≈ 2.35 µM)
